Reference: US5238936A, “Trisubstituted triazines” (Adir et Compagnie, priority 1991, dated 1993)

Legend:
line DC-3F/AD [1] = assay: Cytotoxicity (Microculture Tetrazolium Assay): reversal of resistance to actinomycin D, line DC-3F/AD; type: cell-based, Chinese hamster; settings: 4 days
Description: The pharmacological study of the compounds of the present invention consisted first of all in an evaluation in vitro carried out on resistant cells. The parameter measured is the cytotoxicity of the antitumour drug, quantified in the absence and in the presence of the reversing compound.
The cells are distributed on microplates and exposed to the cytotoxic compounds (actinomycin D for line DC-3F/AD and adriamycin for line KB-Al) at 9 concentrations (2 by 2 series dilutions). The compounds tested for their capacity to reverse MDR are added at the same time as the cytotoxic agent.
The cells are then incubated for 4 days. […] The results are expressed as a reversion factor (RF): PG,29 [formula]

line DC-3F/AD [2] = assay: Flow cytometry: intracellular accumulation of adriamycin by cells of the line DC-3F/AD; type: cell-based, Chinese hamster; settings: ADR 50 μM, 5 hours
Description: Also measured was the effect of the compounds on the intracellular concentration of the cytotoxic agent. In effect, the known compounds for reversing MDR act by increasing the intracellular concentration of cytotoxic agent. This effect is the consequence of inhibiting the action of gP 170 which is responsible for the efflux of the drug.
By measuring that fluorescence, it is thus possible to obtain a relative measurement of the intracellular concentration of ADR.
The cells 500×10^3 per ml were exposed simultaneously to ADR at a fixed concentration (50 μM) and to the tested compounds at various concentrations. After 5 hours' incubation, the intracellular accumulation of ADR was evaluated by FCM. […] The analysis of each of the samples was carried out on a total of 10,000 cells at a rate of 1,000 cells per second.
The results were presented in the form of linear histograms of the intracellular ADR fluorescence.
Expression of the results: for each of the histograms the mean fluorescence per channel (MEAN) was determined by the information system of the apparatus. For all experiments:
a negative control (cells without ADR) fixed the autofluorescence threshold.
a positive control (cells with ADR) determined the MEAN value=MN1.
the "test" tubes (cells with ADR and with compound) were used to determine, for each of the compounds and at each of the concentrations, the MEAN values=MN2.
The results are expressed in the form of variations from the mean fluorescence obtained for each of the "test" tubes (MN2) in relation to the mean fluorescence obtained with the positive control (MNl): VAR-MEAN=MN2-MN1. The parameter expressed is thus the increase in ADR fluorescence in the presence of the tested compounds.

C=CCNc1nc(NCC=C)nc(NCC(O)CN2CCC(NCC3c4ccccc4CCc4ccccc43)CC2)n1 (stereo not drawn) [Example 17, 2,4-diallylamino-6-{3-[4-(10,11-dihydro-5H-dibenzo[a,d]cyclohepten-5-ylmethylamino)piperidin-1-yl]-2-hydroxypropylamino}-1,3,5-triazine]
Reversion factors (cytotoxicity) with the line DC-3F/AD (line DC-3F/AD [1]; 0.5 μM compound): 0.8
Reversion factors (cytotoxicity) with the line DC-3F/AD (line DC-3F/AD [1]; 1 μM compound): 0.8
Reversion factors (cytotoxicity) with the line DC-3F/AD (line DC-3F/AD [1]; 5 μM compound): 1.1
VAR-MEAN (increase in ADR fluorescence), line DC-3F/AD (line DC-3F/AD [2]; 1.0 μM compound): 9.4
VAR-MEAN (increase in ADR fluorescence), line DC-3F/AD (line DC-3F/AD [2]; 5.0 μM compound): 10.5
VAR-MEAN (increase in ADR fluorescence), line DC-3F/AD (line DC-3F/AD [2]; 10 μM compound): 12.6
VAR-MEAN (increase in ADR fluorescence), line DC-3F/AD (line DC-3F/AD [2]; […] compound): 11.0

C=CCNc1nc(N)nc(N2CCC(NCC3c4ccccc4CCc4ccccc43)CC2)n1 [Example 18, 2-allylamino-4-amino-6-{4-[(10,11-dihydro-5H-dibenzo[a,d]cyclohepten-5-yl)methylamino]piperidin-1-yl}-1,3,5-triazine]
Reversion factors (cytotoxicity) with the line DC-3F/AD (line DC-3F/AD [1]; 0.5 μM compound): 1.2
Reversion factors (cytotoxicity) with the line DC-3F/AD (line DC-3F/AD [1]; 1 μM compound): 3
Reversion factors (cytotoxicity) with the line DC-3F/AD (line DC-3F/AD [1]; 5 μM compound): 421
VAR-MEAN (increase in ADR fluorescence), line DC-3F/AD (line DC-3F/AD [2]; 1.0 μM compound): 5.5
VAR-MEAN (increase in ADR fluorescence), line DC-3F/AD (line DC-3F/AD [2]; 5.0 μM compound): 6.7
VAR-MEAN (increase in ADR fluorescence), line DC-3F/AD (line DC-3F/AD [2]; 10 μM compound): 11.0
VAR-MEAN (increase in ADR fluorescence), line DC-3F/AD (line DC-3F/AD [2]; […] compound): 7.4

C=CCNc1nc(NCC=C)nc(N2CCC(CNC3c4ccccc4CCc4ccccc43)CC2)n1 [Example 23, 2,4-diallylamino-6-{4-[(10,11-dihydro-5H-dibenzo[a,d]cyclohepten-5-yl)aminomethyl]piperidin-1-yl}-1,3,5-triazine]
Reversion factors (cytotoxicity) with the line DC-3F/AD (line DC-3F/AD [1]; 1 μM compound): 1.4
Reversion factors (cytotoxicity) with the line DC-3F/AD (line DC-3F/AD [1]; 5 μM compound): 173
VAR-MEAN (increase in ADR fluorescence), line DC-3F/AD (line DC-3F/AD [2]; 1.0 μM compound): 10.0
VAR-MEAN (increase in ADR fluorescence), line DC-3F/AD (line DC-3F/AD [2]; 5.0 μM compound): 14.0
VAR-MEAN (increase in ADR fluorescence), line DC-3F/AD (line DC-3F/AD [2]; 10 μM compound): 20.5
VAR-MEAN (increase in ADR fluorescence), line DC-3F/AD (line DC-3F/AD [2]; […] compound): 14.6

C=CCNc1nc(NCC=C)nc(N2CCN(NCC3c4ccccc4CCc4ccccc43)CC2)n1 [Example 24, 2,4-diallylamino-6-{4-[(10,11-dihydro-5H-dibenzo[a,d]cyclohepten-5-yl)methylamino]piperazin-1-yl}-1,3,5-triazine]
Reversion factors (cytotoxicity) with the line DC-3F/AD (line DC-3F/AD [1]; 0.5 μM compound): 2.5
Reversion factors (cytotoxicity) with the line DC-3F/AD (line DC-3F/AD [1]; 1 μM compound): 14
Reversion factors (cytotoxicity) with the line DC-3F/AD (line DC-3F/AD [1]; 5 μM compound): 329
VAR-MEAN (increase in ADR fluorescence), line DC-3F/AD (line DC-3F/AD [2]; 1.0 μM compound): 12.8
VAR-MEAN (increase in ADR fluorescence), line DC-3F/AD (line DC-3F/AD [2]; 5.0 μM compound): 21.1
VAR-MEAN (increase in ADR fluorescence), line DC-3F/AD (line DC-3F/AD [2]; 10 μM compound): 28.2
VAR-MEAN (increase in ADR fluorescence), line DC-3F/AD (line DC-3F/AD [2]; […] compound): 16.9

C=CCNc1nc(NCC=C)nc(N2CCN(CC3c4ccccc4CCc4ccccc43)CC2)n1 [Example 25, 2,4-diallylamino-6-{4-[(10,11-dihydro-5H-dibenzo[a,d]cyclohepten-5-yl)methyl]piperazin-1-yl}-1,3,5-triazine]
Reversion factors (cytotoxicity) with the line DC-3F/AD (line DC-3F/AD [1]; 1 μM compound): 13
Reversion factors (cytotoxicity) with the line DC-3F/AD (line DC-3F/AD [1]; 5 μM compound): 464
VAR-MEAN (increase in ADR fluorescence), line DC-3F/AD (line DC-3F/AD [2]; 1.0 μM compound): 9.9
VAR-MEAN (increase in ADR fluorescence), line DC-3F/AD (line DC-3F/AD [2]; 5.0 μM compound): 17.6
VAR-MEAN (increase in ADR fluorescence), line DC-3F/AD (line DC-3F/AD [2]; 10 μM compound): 24.5
VAR-MEAN (increase in ADR fluorescence), line DC-3F/AD (line DC-3F/AD [2]; […] compound): 14.7

C=CCNc1nc(NCC=C)nc(N2CCC(N(C)CC3c4ccccc4CCc4ccccc43)CC2)n1 [Example 30, 2,4-diallylamino-6-{4-[N-((10,11-dihydro-5H-dibenzo[a,d]cyclohepten-5-yl)methyl)-N-methylamino]piperidin-1-yl}-1,3,5-triazine]
Reversion factors (cytotoxicity) with the line DC-3F/AD (line DC-3F/AD [1]; 1 μM compound): 2.3
Reversion factors (cytotoxicity) with the line DC-3F/AD (line DC-3F/AD [1]; 5 μM compound): 834.0
VAR-MEAN (increase in ADR fluorescence), line DC-3F/AD (line DC-3F/AD [2]; 1.0 μM compound): 5.9
VAR-MEAN (increase in ADR fluorescence), line DC-3F/AD (line DC-3F/AD [2]; 5.0 μM compound): 17.8
VAR-MEAN (increase in ADR fluorescence), line DC-3F/AD (line DC-3F/AD [2]; 10 μM compound): 19.0
VAR-MEAN (increase in ADR fluorescence), line DC-3F/AD (line DC-3F/AD [2]; […] compound): 12.3
